Reference: patent US8492410B2, “Pyridine derivatives as sphingosine 1-phosphate (S1P) receptor modulators” (Allergan, Inc., priority 2010, dated 2013)

biological target: T1, human S1P1 receptor (Homo sapiens, UniProt P21453); test: GTP γ35S binding assay for S1P1 activity; assay type: biochemical; details: activity potency from GTP γ35S binding; 5 μg membrane protein, 30 min at 25° C., test compounds 0.08 to 5,000 nM
T1 construct: expressed in transfected cells; membranes were used
Method: Compounds were synthesized and tested for S1P1 activity using the GTP γ^35S binding assay. These compounds may be assessed for their ability to activate or block activation of the human S1P1 receptor in cells stably expressing the S1P1 receptor.
GTP γ^35S binding was measured in the medium containing (mM) HEPES 25, pH 7.4, MgCl2 10, NaCl 100, dithitothreitol 0.5, digitonin 0.003%, 0.2 nM GTP γ^35S, and 5 μg membrane protein in a volume of 150 μl. Test compounds were included in the concentration range from 0.08 to 5,000 nM unless indicated otherwise. Membranes were incubated with 100 μM 5′-adenylylimmidodiphosphate for 30 min, and subsequently with 10 μM GDP for 10 min on ice. Drug solutions and membrane were mixed, and then reactions were initiated by adding GTP γ^35S and continued for 30 min at 25° C. Reaction mixtures were filtered over Whatman GF/B filters under vacuum, and washed three times with 3 mL of ice-cold buffer (HEPES 25, pH7.4, MgCl2 10 and NaCl 100). Filters were dried and mixed with scintillant, and counted for ^35S activity using a 8-counter. Agonist-induced GTP γ^35S binding was obtained by subtracting that in the absence of agonist. Binding data were analyzed using a non-linear regression method. In case of antagonist assay, the reaction mixture contained 10 nM S1P in the presence of test antagonist at concentrations ranging from 0.08 to 5000 nM.

T1 sequence (P21453 whole entry): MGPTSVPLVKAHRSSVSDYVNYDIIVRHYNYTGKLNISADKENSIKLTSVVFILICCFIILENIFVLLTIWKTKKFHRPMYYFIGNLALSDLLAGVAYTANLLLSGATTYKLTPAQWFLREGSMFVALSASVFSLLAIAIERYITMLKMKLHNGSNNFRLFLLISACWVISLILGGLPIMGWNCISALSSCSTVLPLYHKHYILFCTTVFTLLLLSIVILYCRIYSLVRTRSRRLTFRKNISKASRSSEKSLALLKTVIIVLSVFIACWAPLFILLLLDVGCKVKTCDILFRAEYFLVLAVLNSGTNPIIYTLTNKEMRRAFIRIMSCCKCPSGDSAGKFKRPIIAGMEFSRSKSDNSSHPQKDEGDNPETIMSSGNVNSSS

EC50	Structure (SMILES)
348 nM	CNc1ncccc1-c1noc(C(CC2CCCCC2)c2cccc(Cl)c2)n1 (stereo not drawn) [3-{5-[1-(3-chlorophenyl)-2-cyclohexylethyl]-1,2,4-oxadiazol-3-yl}-N-methylpyridin-2-amine]
912 nM	CNc1ncccc1-c1noc(C(Cc2ccc(C)c(C)c2)c2ccccc2)n1 (stereo not drawn) [3-{5-[2-(3,4-dimethylphenyl)-1-phenylethyl]-1,2,4-oxadiazol-3-yl}-N-methylpyridin-2-amine]
2020 nM	CNc1ncccc1-c1noc(C(Cc2ccc(Cl)c(Cl)c2)c2ccc(Cl)cc2)n1 (stereo not drawn) [3-{5-[1-(4-chlorophenyl)-2-(3,4-dichlorophenyl)ethyl]-1,2,4-oxadiazol-3-yl}-N-methylpyridin-2-amine]
14.5 nM	CNc1ncccc1-c1noc(C(Cc2ccc(C)c(C)c2)c2cncc(Cl)c2)n1 (stereo not drawn) [3-{5-[1-(5-chloropyridin-3-yl)-2-(3,4-dimethylphenyl)ethyl]-1,2,4-oxadiazol-3-yl}-N-methylpyridin-2-amine]
78.3 nM	CNc1ncccc1-c1noc(C(Cc2ccc(C)cc2)c2cccc(Cl)c2)n1 (stereo not drawn) [3-{5-[1-(3-chlorophenyl)-2-(4-methylphenyl)ethyl]-1,2,4-oxadiazol-3-yl}-N-methylpyridin-2-amine]
61.8 nM	CCc1cccc(C(Cc2ccc(C)c(C)c2)c2nc(-c3cccnc3NC)no2)c1 (stereo not drawn) [3-{5-[2-(3,4-dimethylphenyl)-1-(3-ethylphenyl)ethyl]-1,2,4-oxadiazol-3-yl}-N-methylpyridin-2-amine]
112 nM	CNc1ncccc1-c1noc(C(Cc2ccccc2)c2cccc(Cl)c2)n1 (stereo not drawn) [3-{5-[1-(3-chlorophenyl)-2-phenylethyl]-1,2,4-oxadiazol-3-yl}-N-methylpyridin-2-amine]
35.7 nM	CNc1ncccc1-c1noc(C(Cc2ccc(C)c(C)c2)c2cccc(F)c2)n1 (stereo not drawn) [3-{5-[2-(3,4-dimethylphenyl)-1-(3-fluorophenyl)ethyl]-1,2,4-oxadiazol-3-yl}-N-methylpyridin-2-amine]
77.6 nM	CNc1ncccc1-c1noc(C(Cc2ccc(C)c(C)c2)c2cccc(OC)c2)n1 (stereo not drawn) [3-{5-[2-(3,4-dimethylphenyl)-1-(3-methoxyphenyl)ethyl]-1,2,4-oxadiazol-3-yl}-N-methylpyridin-2-amine]
296 nM	CNc1ncccc1-c1noc(C(Cc2ccc(C)c(C)c2)c2ccsc2)n1 (stereo not drawn) [Compound 29, 3-(5-(2-(3,4-dimethylphenyl)-1-(thiophen-3-yl)ethyl)-1,2,4-oxadiazol-3-yl)-N-methylpyridin-2-amine]
50.6 nM	CNc1ncccc1-c1noc(C(Cc2ccc(C)c(C)c2)c2cccc(Br)c2)n1 (stereo not drawn) [Compound 3, 3-{5-[2-(3,4-dimethylphenyl)-1-(3-bromophenyl)ethyl]-1,2,4-oxadiazol-3-yl}-N-methylpyridin-2-amine]
533 nM	CNc1ncccc1-c1noc(C(Cc2ccc(C)cc2)c2ccsc2)n1 (stereo not drawn) [Compound 1, N-methyl-3-(5-(1-(thiophen-3-yl)-2-(p-tolyl)ethyl)-1,2,4-oxadiazol-3-yl)pyridin-2-amine]
524 nM	CNc1ncccc1-c1noc(C(Cc2ccc(C)c(C)c2)c2cccs2)n1 (stereo not drawn) [Compound 27, 3-(5-(2-(3,4-dimethylphenyl)-1-(thiophen-2-yl)ethyl)-1,2,4-oxadiazol-3-yl)-N-methylpyridin-2-amine]
470 nM	CNc1ncccc1-c1noc(C(Cc2ccc(C)c(C)c2)c2ccc(Cl)cc2)n1 (stereo not drawn) [Compound 10, 3-{5-[2-(3,4-dimethylphenyl)-1-(4-chlorophenyl)ethyl]-1,2,4-oxadiazol-3-yl}-N-methylpyridin-2-amine]
167 nM	CNc1ncccc1-c1noc(C(Cc2ccc(C)c(C)c2)c2cccc(C(F)(F)F)c2)n1 (stereo not drawn) [3-(5-{2-(3,4-dimethylphenyl)-1-[3-(trifluoromethyl)phenyl]ethyl}-1,2,4-oxadiazol-3-yl)-N-methylpyridin-2-amine]
86.4 nM	CNc1ncccc1-c1noc(C(Cc2ccc(C)c(C)c2)c2cccc([N+](=O)[O-])c2)n1 (stereo not drawn) [3-{5-[2-(3,4-dimethylphenyl)-1-(3-nitrophenyl)ethyl]-1,2,4-oxadiazol-3-yl}-N-methylpyridin-2-amine]
125 nM	CNc1ncccc1-c1noc(C(Cc2cccc(C)c2)c2cccc(Cl)c2)n1 (stereo not drawn) [3-{5-[1-(3-chlorophenyl)-2-(3-methylphenyl)ethyl]-1,2,4-oxadiazol-3-yl}-N-methylpyridin-2-amine]
12 nM	CNc1ncccc1-c1noc(C(Cc2ccc(C)c(C)c2)c2cc(F)cc(F)c2)n1 (stereo not drawn) [Compound 23, 3-(5-(1-(3,5-difluorophenyl)-2-(3,4-dimethylphenyl)ethyl)-1,2,4-oxadiazol-3-yl)-N-methylpyridin-2-amine]
161 nM	CNc1ncccc1-c1noc(C(Cc2ccc(C)c(C)c2)c2cc(C)cc(C)c2)n1 (stereo not drawn) [Compound 25, 3-(5-(2-(3,4-dimethylphenyl)-1-(3,5-dimethylphenyl)ethyl)-1,2,4-oxadiazol-3-yl)-N-methylpyridin-2-amine]
274 nM	CNc1ncccc1-c1noc(C(Cc2ccc(C)c(C)c2)c2ccc(Cl)nc2)n1 (stereo not drawn) [3-{5-[1-(6-chloropyridin-3-yl)-2-(3,4-dimethylphenyl)ethyl]-1,2,4-oxadiazol-3-yl}-N-methylpyridin-2-amine]
2090 nM	CNc1ncccc1-c1noc(C(Cc2ccc(CC(C)C)cc2)c2cccc(Cl)c2)n1 (stereo not drawn) [3-{5-[1-(3-chlorophenyl)-2-(4-isobutylphenyl)ethyl]-1,2,4-oxadiazol-3-yl}-N-methylpyridin-2-amine]
2760 nM	CNc1ncccc1-c1noc(C(Cc2cc(C)cc(C)c2)c2ccc(Cl)nc2)n1 (stereo not drawn) [3-{5-[1-(6-chloropyridin-3-yl)-2-(3,5-dimethylphenyl)ethyl]-1,2,4-oxadiazol-3-yl}-N-methylpyridin-2-amine]
2400 nM	CNc1ncccc1-c1noc(C(Cc2ccccc2)c2ccc(Cl)cc2)n1 (stereo not drawn) [3-{5-[1-(4-chlorophenyl)-2-phenylethyl]-1,2,4-oxadiazol-3-yl}-N-methylpyridin-2-amine]
2260 nM	CNc1ncccc1-c1noc(C(Cc2ccc(C)c(C)c2)c2ccc(C(F)(F)F)cc2)n1 (stereo not drawn) [3-(5-{2-(3,4-dimethylphenyl)-1-[4-(trifluoromethyl)phenyl]ethyl}-1,2,4-oxadiazol-3-yl)-N-methylpyridin-2-amine]
66.4 nM	CNc1ncccc1-c1noc(C(Cc2ccc(C)c(C)c2)c2cccc(Cl)c2)n1 (stereo not drawn) [Compound 2, 3-{5-[2-(3,4-dimethylphenyl)-1-(3-chlorophenyl)ethyl]-1,2,4-oxadiazol-3-yl}-N-methylpyridin-2-amine]
1330 nM	CNc1ncccc1-c1noc(C(Cc2ccc(C)c(C)c2)c2ccc(OC)cc2)n1 (stereo not drawn) [3-{5-[2-(3,4-dimethylphenyl)-1-(4-methoxyphenyl)ethyl]-1,2,4-oxadiazol-3-yl}-N-methylpyridin-2-amine]
1240 nM	CNc1ncccc1-c1noc(C(Cc2ccccc2)c2ccccc2)n1 (stereo not drawn) [Compound 24, 3-(5-(1,2-diphenylethyl)-1,2,4-oxadiazol-3-yl)-N-methylpyridin-2-amine]
928 nM	CNc1ncccc1-c1noc(C(Cc2ccc(C)cc2)c2cccs2)n1 (stereo not drawn) [Compound 26, N-methyl-3-(5-(1-(thiophen-2-yl)-2-(p-tolyl)ethyl)-1,2,4-oxadiazol-3-yl)pyridin-2-amine]
1860 nM	CNc1ncccc1-c1noc(C(CC2CCCC2)c2cccc(Cl)c2)n1 (stereo not drawn) [3-{5-[1-(3-chlorophenyl)-2-cyclopentylethyl]-1,2,4-oxadiazol-3-yl}-N-methylpyridin-2-amine]
50.2 nM	CNc1ncccc1-c1noc(C(Cc2ccc(C)c(C)c2)c2cccc(C)c2)n1 (stereo not drawn) [3-{5-[2-(3,4-dimethylphenyl)-1-(3-methylphenyl)ethyl]-1,2,4-oxadiazol-3-yl}-N-methylpyridin-2-amine]
